Results published in patent publication US8557816B2, “Aurora kinase modulators and method of use” (Amgen Inc., priority 2007, dated 2013).

Tests used:
[1] = molecular target: T1, AuroraA-TPX2 (Homo sapiens, UniProt O14965); test: AuroraA-TPX2 Homogeneous Time Resolved Fluorescent (HTRF) kinase assay; type: biochemical; conditions: average; read-out: AurA_IC50_IP (uM Avg)
T1 construct: 20 μL of AuroraA-TPX2 KD GST for a final volume of about 41 μL; GST
T1 sequence (O14965 133-383 limits assumed): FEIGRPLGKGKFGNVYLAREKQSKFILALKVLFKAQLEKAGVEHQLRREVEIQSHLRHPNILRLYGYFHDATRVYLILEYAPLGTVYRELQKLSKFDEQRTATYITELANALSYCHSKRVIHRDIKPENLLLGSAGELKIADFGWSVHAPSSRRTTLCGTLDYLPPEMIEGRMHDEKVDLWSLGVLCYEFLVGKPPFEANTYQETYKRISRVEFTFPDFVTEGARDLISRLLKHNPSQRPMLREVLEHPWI
T1 sequence (Q9ULW0 1-43 partner limits assumed): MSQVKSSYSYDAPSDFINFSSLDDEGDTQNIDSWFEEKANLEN
Procedure, shortened: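 HTRF read-out (Eu 615 nm to APC 655 nm) of phosphorylated biotin-PLK, detected with 0.02 nM europium anti-phosphoPLK antibody and 0.0005 mg/mL SA-APC after overnight equilibration.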

[2] = molecular target: T2, AuroraB (Homo sapiens, UniProt Q96GD4); test: AuroraB Homogeneous Time Resolved Fluorescent (HTRF) kinase assay; type: biochemical; conditions: average; read-out: AurB_IC50_IP (uM Avg)
T2 construct: 20 μL of AuroraB FL H is for a final volume of 41 μL; His
Procedure, shortened: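 Read-out is time-resolved FRET between europium anti-phospho-H3 antibody and streptavidin-APC, added in EDTA buffer to stop the reaction and equilibrated about 60 min (ex 320, em 615 and 655 nm). Preceding reaction: ~90 min, full-length enzyme, ATP, 0.1 μM biotin-Histone H3 substrate, Mg/Mn HEPES buffer pH 7.5.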

T2 sequence (Q96GD4 whole entry): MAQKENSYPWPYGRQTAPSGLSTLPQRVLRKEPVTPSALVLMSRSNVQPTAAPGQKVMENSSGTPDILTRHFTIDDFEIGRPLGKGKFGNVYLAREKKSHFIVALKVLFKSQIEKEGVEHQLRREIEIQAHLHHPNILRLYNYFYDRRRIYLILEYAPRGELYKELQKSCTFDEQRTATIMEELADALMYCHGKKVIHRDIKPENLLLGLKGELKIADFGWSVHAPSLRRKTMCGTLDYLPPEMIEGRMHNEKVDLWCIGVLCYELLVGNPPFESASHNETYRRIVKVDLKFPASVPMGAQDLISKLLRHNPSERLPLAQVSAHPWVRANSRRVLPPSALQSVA

What does the source list for COc1cnc2c(Oc3ccc(Nc4nnc(-c5cc6ccccc6o5)c5ccccc45)cc3)ccnc2c1 [compound 176, 4-(1-benzofuran-2-yl)-N-(4-((7-(methyloxy)-1,5-naphthyridin-4-yl)oxy)phenyl)-1-phthalazinamine]?
IC50 [1]: 0.007 µM; IC50 [2]: 0.002 µM

COc1cnc2c(Oc3ccc(Nc4nnc(-c5ccc(C(N)=O)cc5)c5ccccc45)cc3)ccnc2c1 [compound 177, 4-(4-((4-((7-(methyloxy)-1,5-naphthyridin-4-yl)oxy)phenyl)amino)-1-phthalazinyl)benzamide] was tested. Which IC50 [1] did it give?
The IC50 was 0.206 µM.

And the IC50 [2]?
Its IC50 is 0.004 µM.

What does the source list for COc1cnc2c(Oc3ccc(Nc4nnc(-c5ccc(C)nc5F)c5ccccc45)cc3)ccnc2c1 [compound 178, 4-(2-fluoro-6-methyl-3-pyridinyl)-N-(4-((7-(methyloxy)-1,5-naphthyridin-4-yl)oxy)phenyl)-1-phthalazinamine]?
IC50 [1]: 0.035 µM; IC50 [2]: 0.002 µM

Which results are given for O=C(Nc1cc(Oc2ccc(Nc3nnc(-c4ccccc4)c4ccccc34)cc2F)ccn1)N1CCOCC1 [compound 179, N-(4-((2-fluoro-4-((4-phenyl-1-phthalazinyl)amino)phenyl)oxy)-2-pyridinyl)-4-morpholinecarboxamide]?
IC50 [1]: 0.18 µM; IC50 [2]: 0.043 µM

COc1cnc2c(Oc3ccc(Nc4nnc(-c5ccc(F)c(OC)c5)c5ccccc45)cc3)ccnc2c1 [compound 180, 4-(4-fluoro-3-(methyloxy)phenyl)-N-(4-((7-(methyloxy)-1,5-naphthyridin-4-yl)oxy)phenyl)-1-phthalazinamine] was tested. Which IC50 [1] did it give?
The IC50 was 0.027 µM.

What about the IC50 [2] of the same compound?
The IC50 was 0.004 µM.

For COc1cnc2c(Oc3ccc(Nc4nnc(-c5ccc(C#N)cc5)c5ccccc45)cc3)ccnc2c1 [compound 181, 4-(4-((4-((7-(methyloxy)-1,5-naphthyridin-4-yl)oxy)phenyl)amino)-1-phthalazinyl)benzonitrile], which IC50 [1] is on record?
The IC50 was 0.171 µM.

What about the IC50 [2] of the same compound?
Its IC50 is 0.007 µM.

What does the source list for COc1cnc2c(Oc3ccc(Nc4nnc(-c5cnc6ccccc6c5)c5ccccc45)cc3)ccnc2c1 [compound 182, N-(4-((7-(methyloxy)-1,5-naphthyridin-4-yl)oxy)phenyl)-4-(3-quinolinyl)-1-phthalazinamine]?
IC50 [1]: 0.023 µM; IC50 [2]: 0.002 µM

How did the IC50 [1] turn out when COc1cnc2c(Oc3ccc(Nc4nnc(-c5cccc6[nH]ccc56)c5ccccc45)cc3)ccnc2c1 [compound 183, 4-(1H-indol-4-yl)-N-(4-((7-(methyloxy)-1,5-naphthyridin-4-yl)oxy)phenyl)-1-phthalazinamine] was run?
The IC50 was 0.033 µM.

And the IC50 [2]?
The IC50 was 0.003 µM.

With Cc1ccsc1-c1nnc(Nc2ccc(Oc3ccnc4cc(C#N)ccc34)cc2)c2ccccc12 [compound 184, 4-((4-((4-(3-methyl-2-thienyl)-1-phthalazinyl)amino)phenyl)oxy)-7-quinolinecarbonitrile] as the compound, how does the IC50 [1] read?
Its IC50 is 0.201 µM.

And the IC50 [2]?
The IC50 was 0.003 µM.

With COc1cnc2c(Oc3ccc(Nc4nnc(-c5sccc5C)c5ccccc45)cc3)ccnc2c1 [compound 185, N-(4-((7-(methyloxy)-1,5-naphthyridin-4-yl)oxy)phenyl)-4-(3-methyl-2-thienyl)-1-phthalazinamine] as the compound, how does the IC50 [1] read?
Its IC50 is 0.231 µM.

And the IC50 [2]?
The IC50 was 0.006 µM.

Which IC50 [1] does the source give for COc1cccc(-c2nnc(Nc3ccc(Oc4ccnc5ccccc45)c(F)c3)c3ccccc23)n1 [compound 186, N-(3-fluoro-4-(4-quinolinyloxy)phenyl)-4-(6-(methyloxy)-2-pyridinyl)-1-phthalazinamine] here?
Its IC50 is 0.059 µM.

And the IC50 [2]?
Its IC50 is 0.002 µM.

How did the IC50 [1] turn out when COc1cnc2c(Oc3ccc(Nc4nnc(-c5ccc(C)cc5)c5ccccc45)cc3F)ccnc2c1 [compound 187, N-(3-fluoro-4-((7-(methyloxy)-1,5-naphthyridin-4-yl)oxy)phenyl)-4-(4-methylphenyl)-1-phthalazinamine] was run?
Its IC50 is 0.006 µM.

And the IC50 [2]?
Its IC50 is 0.004 µM.

For COc1cnc2c(Oc3ccc(Nc4nnc(-c5cc(C)cc(C)c5)c5ccccc45)cc3)ccnc2c1 [compound 188, 4-(3,5-dimethylphenyl)-N-(4-((7-(methyloxy)-1,5-naphthyridin-4-yl)oxy)phenyl)-1-phthalazinamine], which IC50 [1] is on record?
Its IC50 is 0.017 µM.

And the IC50 [2]?
The IC50 was 0.006 µM.

With COc1cnc2c(Oc3ccc(Nc4nnc(-c5ncc(C)s5)c5ccccc45)cc3)ccnc2c1 [compound 189, N-(4-((7-(methyloxy)-1,5-naphthyridin-4-yl)oxy)phenyl)-4-(5-methyl-1,3-thiazol-2-yl)-1-phthalazinamine] as the compound, how does the IC50 [1] read?
Its IC50 is 0.022 µM.

What about the IC50 [2] of the same compound?
Its IC50 is 0.009 µM.

COc1cnc2c(Oc3ccc(Nc4nnc(-c5ccc(F)nc5)c5ccccc45)cc3)ccnc2c1 [compound 190, 4-(6-fluoro-3-pyridinyl)-N-(4-((7-(methyloxy)-1,5-naphthyridin-4-yl)oxy)phenyl)-1-phthalazinamine] was tested. Which IC50 [1] did it give?
The IC50 was 0.052 µM.

What about the IC50 [2] of the same compound?
The IC50 was 0.005 µM.

Which results are given for COc1cnc2c(Oc3ccc(Nc4nnc(-c5cccnc5F)c5ccccc45)cc3)ccnc2c1 [compound 191, 4-(2-fluoro-3-pyridinyl)-N-(4-((7-(methyloxy)-1,5-naphthyridin-4-yl)oxy)phenyl)-1-phthalazinamine]?
IC50 [1]: 0.104 µM; IC50 [2]: 0.009 µM

What does the source list for COc1cnc2c(Oc3ccc(Nc4nnc(-c5ccc(F)c(Cl)c5)c5ccccc45)cc3)ccnc2c1 [compound 193, 4-(3-chloro-4-fluorophenyl)-N-(4-((7-(methyloxy)-1,5-naphthyridin-4-yl)oxy)phenyl)-1-phthalazinamine]?
IC50 [1]: 0.023 µM; IC50 [2]: 0.005 µM

How did the IC50 [1] turn out when COc1cnc2c(Oc3ccc(Nc4nnc(-c5ccc(N(C)C)cc5)c5ccccc45)cc3)ccnc2c1 [compound 194, 4-(4-(dimethylamino)phenyl)-N-(4-((7-(methyloxy)-1,5-naphthyridin-4-yl)oxy)phenyl)-1-phthalazinamine] was run?
The IC50 was 0.023 µM.

What about the IC50 [2] of the same compound?
The IC50 was 0.01 µM.

What does the source list for COc1cnc2c(Oc3ccc(Nc4nnc(-c5ccc6sc(C)nc6c5)c5ccccc45)cc3)ccnc2c1 [compound 195, 4-(2-methyl-1,3-benzothiazol-5-yl)-N-(4-((7-(methyloxy)-1,5-naphthyridin-4-yl)oxy)phenyl)-1-phthalazinamine]?
IC50 [1]: 0.088 µM; IC50 [2]: 0.005 µM

What does the source list for CCCc1cc(-c2ccccc2)nnc1Nc1ccc(Oc2ccnc3cc(C#N)ccc23)cc1 [compound 196, 4-((4-((6-phenyl-4-propyl-3-pyridazinyl)amino)phenyl)oxy)-7-quinolinecarbonitrile]?
IC50 [1]: 0.672 µM; IC50 [2]: 0.006 µM

With COc1cnc2c(Oc3ccc(Nc4nnc(-c5ccc(N6CCCCC6)cc5)c5ccccc45)cc3)ccnc2c1 [compound 198, N-(4-((7-(methyloxy)-1,5-naphthyridin-4-yl)oxy)phenyl)-4-(4-(1-piperidinyl)phenyl)-1-phthalazinamine] as the compound, how does the IC50 [1] read?
Its IC50 is 0.128 µM.

What about the IC50 [2] of the same compound?
Its IC50 is 0.004 µM.

Which IC50 [1] does the source give for CCc1cc(-c2ccc(C)cc2)nnc1Nc1ccc(Oc2ccnc3cc(OC)cnc23)cc1 [compound 199, 4-ethyl-N-(4-((7-(methyloxy)-1,5-naphthyridin-4-yl)oxy)phenyl)-6-(4-methylphenyl)-3-pyridazinamine] here?
Its IC50 is 0.027 µM.

What about the IC50 [2] of the same compound?
The IC50 was 0.002 µM.

How did the IC50 [1] turn out when COc1cnc2c(Oc3ccc(Nc4nnc(-c5ncco5)c5ccccc45)cc3)ccnc2c1 [compound 200, N-(4-((7-(methyloxy)-1,5-naphthyridin-4-yl)oxy)phenyl)-4-(1,3-oxazol-2-yl)-1-phthalazinamine] was run?
The IC50 was 0.087 µM.

And the IC50 [2]?
The IC50 was 0.003 µM.

What does the source list for COc1cnc2c(Oc3ccc(Nc4nnc(-c5ccc(Cl)c(Cl)c5)c5ccccc45)cc3)ccnc2c1 [compound 201, 4-(3,4-dichlorophenyl)-N-(4-((7-(methyloxy)-1,5-naphthyridin-4-yl)oxy)phenyl)-1-phthalazinamine]?
IC50 [1]: 0.035 µM; IC50 [2]: 0.006 µM

Which results are given for Cn1cncc1-c1cc2nccc(Oc3ccc(Nc4nnc(-c5ccccc5)c5ccccc45)cc3)c2s1 [compound 202, N-(4-((2-(1-methyl-1H-imidazol-5-yl)thieno[3,2-b]pyridin-7-yl)oxy)phenyl)-4-phenyl-1-phthalazinamine]?
IC50 [1]: 0.02 µM; IC50 [2]: 0.002 µM

Which IC50 [1] does the source give for Cc1ccc(-c2nnc(Nc3ccc(Oc4ccnc5cc(-c6cncn6C)sc45)cc3)c3ccccc23)cc1 [compound 203, N-(4-((2-(1-methyl-1H-imidazol-5-yl)thieno[3,2-b]pyridin-7-yl)oxy)phenyl)-4-(4-methylphenyl)-1-phthalazinamine] here?
The IC50 was 0.008 µM.

And the IC50 [2]?
Its IC50 is 0.002 µM.

Which IC50 [1] does the source give for COc1cnc2c(Oc3ccc(Nc4nnc(-c5ccc6c(ccn6C)c5)c5ccccc45)cc3)ccnc2c1 [compound 204, 4-(1-methyl-1H-indol-5-yl)-N-(4-((7-(methyloxy)-1,5-naphthyridin-4-yl)oxy)phenyl)-1-phthalazinamine] here?
The IC50 was 0.026 µM.

And the IC50 [2]?
Its IC50 is 0.003 µM.

For CCc1cc(-c2ccc(C)s2)nnc1Nc1ccc(Oc2ccnc3cc(OC)cnc23)cc1 [compound 205, 4-ethyl-N-(4-((7-(methyloxy)-1,5-naphthyridin-4-yl)oxy)phenyl)-6-(5-methyl-2-thienyl)-3-pyridazinamine], which IC50 [1] is on record?
The IC50 was 0.06 µM.

What about the IC50 [2] of the same compound?
The IC50 was 0.004 µM.

For COc1cnc2c(Oc3ccc(Nc4nnc(-c5ccc6cc[nH]c6c5)c5ccccc45)cc3)ccnc2c1 [compound 206, 4-(1H-indol-6-yl)-N-(4-(7-methoxy-1,5-naphthyridin-4-yloxy)phenyl)phthalazin-1-amine], which IC50 [1] is on record?
The IC50 was 0.017 µM.

And the IC50 [2]?
Its IC50 is 0.003 µM.
